Measurements taken from paper PMC3961306, “Comparison of the Cancer Gene Targeting and Biochemical Selectivities of All Targeted Kinase Inhibitors Approved for Clinical Use” (PLoS ONE, 2014).

Key:
Experiment in all cases: Kinase profiling in a biochemical assay panel (mobility shift assays and ELISA), %-inhibition at 1 μM; selectivity entropy
[1] = target: panel of more than 300 wild-type and mutant kinases (313 kinase panel) (Homo sapiens, UniProt O14578)
[2] = target: panel of more than 300 wild-type and mutant kinases (313 kinase panel) (Homo sapiens, UniProt P14616)
[3] = target: T1, panel of more than 300 wild-type and mutant kinases (313 kinase panel) (Homo sapiens, UniProt P33981)
T1 sequence (P33981 1-857): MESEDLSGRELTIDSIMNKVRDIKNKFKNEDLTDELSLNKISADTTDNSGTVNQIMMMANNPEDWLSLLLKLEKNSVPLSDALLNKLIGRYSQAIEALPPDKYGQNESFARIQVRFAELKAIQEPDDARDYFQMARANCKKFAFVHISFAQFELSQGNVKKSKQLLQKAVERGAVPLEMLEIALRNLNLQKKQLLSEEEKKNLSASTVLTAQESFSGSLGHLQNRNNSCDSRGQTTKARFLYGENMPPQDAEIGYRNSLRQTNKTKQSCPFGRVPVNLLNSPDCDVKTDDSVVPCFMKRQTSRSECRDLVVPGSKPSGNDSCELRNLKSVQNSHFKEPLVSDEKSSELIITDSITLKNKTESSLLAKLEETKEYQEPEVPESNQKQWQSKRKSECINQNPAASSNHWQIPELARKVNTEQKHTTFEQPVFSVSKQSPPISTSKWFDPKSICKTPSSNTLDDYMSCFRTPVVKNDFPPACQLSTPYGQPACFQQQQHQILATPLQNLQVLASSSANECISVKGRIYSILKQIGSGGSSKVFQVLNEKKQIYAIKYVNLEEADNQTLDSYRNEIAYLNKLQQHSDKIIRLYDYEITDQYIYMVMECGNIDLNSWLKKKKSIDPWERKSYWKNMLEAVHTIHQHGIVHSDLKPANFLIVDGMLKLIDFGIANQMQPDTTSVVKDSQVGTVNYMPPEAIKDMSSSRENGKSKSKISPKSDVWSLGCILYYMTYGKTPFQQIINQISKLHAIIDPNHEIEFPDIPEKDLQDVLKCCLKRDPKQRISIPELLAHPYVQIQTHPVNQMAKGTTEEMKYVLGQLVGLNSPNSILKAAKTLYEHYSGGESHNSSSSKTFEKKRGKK

[4] = target: T2, panel of more than 300 wild-type and mutant kinases (313 kinase panel) (Homo sapiens, UniProt P54762)
T2 sequence (P54762 18-984): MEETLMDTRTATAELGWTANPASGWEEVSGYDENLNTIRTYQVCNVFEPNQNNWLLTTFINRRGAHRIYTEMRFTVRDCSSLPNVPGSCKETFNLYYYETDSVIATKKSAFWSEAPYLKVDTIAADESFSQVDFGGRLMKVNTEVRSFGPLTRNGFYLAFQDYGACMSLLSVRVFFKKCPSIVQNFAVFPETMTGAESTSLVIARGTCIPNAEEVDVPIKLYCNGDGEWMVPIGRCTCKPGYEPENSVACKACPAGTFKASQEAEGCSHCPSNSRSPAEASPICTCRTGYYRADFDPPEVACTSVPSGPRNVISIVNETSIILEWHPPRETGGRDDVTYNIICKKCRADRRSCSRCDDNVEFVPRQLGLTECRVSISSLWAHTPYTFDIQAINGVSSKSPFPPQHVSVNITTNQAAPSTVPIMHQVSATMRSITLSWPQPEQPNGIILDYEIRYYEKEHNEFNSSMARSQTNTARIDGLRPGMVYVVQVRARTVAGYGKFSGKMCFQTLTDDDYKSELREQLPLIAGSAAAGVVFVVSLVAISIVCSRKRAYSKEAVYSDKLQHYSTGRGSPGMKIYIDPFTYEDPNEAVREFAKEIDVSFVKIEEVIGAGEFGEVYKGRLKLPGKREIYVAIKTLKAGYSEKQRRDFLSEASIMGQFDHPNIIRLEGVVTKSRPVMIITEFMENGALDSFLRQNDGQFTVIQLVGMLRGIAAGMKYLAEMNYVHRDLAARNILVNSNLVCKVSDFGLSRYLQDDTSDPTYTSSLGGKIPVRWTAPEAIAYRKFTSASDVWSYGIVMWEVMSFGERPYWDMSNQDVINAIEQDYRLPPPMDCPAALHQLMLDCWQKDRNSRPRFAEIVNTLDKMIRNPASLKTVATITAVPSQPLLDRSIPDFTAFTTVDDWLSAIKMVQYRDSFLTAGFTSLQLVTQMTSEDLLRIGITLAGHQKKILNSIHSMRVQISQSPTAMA

[5] = target: panel of more than 300 wild-type and mutant kinases (313 kinase panel) (Homo sapiens, UniProt Q05655)
[6] = target: T3, panel of more than 300 wild-type and mutant kinases (313 kinase panel) (Homo sapiens, UniProt Q13043)
T3 sequence (Q13043 1-487): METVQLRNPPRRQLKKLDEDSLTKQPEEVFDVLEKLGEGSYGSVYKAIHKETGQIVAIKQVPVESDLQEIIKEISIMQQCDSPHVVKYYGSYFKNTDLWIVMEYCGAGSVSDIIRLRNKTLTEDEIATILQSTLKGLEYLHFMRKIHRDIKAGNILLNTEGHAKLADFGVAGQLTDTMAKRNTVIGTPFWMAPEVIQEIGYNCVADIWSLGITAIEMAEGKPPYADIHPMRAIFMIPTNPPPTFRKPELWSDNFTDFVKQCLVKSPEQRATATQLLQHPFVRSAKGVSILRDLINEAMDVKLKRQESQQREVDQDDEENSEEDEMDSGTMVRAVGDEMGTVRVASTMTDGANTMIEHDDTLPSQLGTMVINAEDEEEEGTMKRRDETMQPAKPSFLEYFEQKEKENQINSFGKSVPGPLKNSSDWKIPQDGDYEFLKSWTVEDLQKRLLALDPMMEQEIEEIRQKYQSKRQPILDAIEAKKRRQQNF

[7] = target: panel of more than 300 wild-type and mutant kinases (313 kinase panel) (Homo sapiens, UniProt Q8TDX7)

Chain of panel of more than 300 wild-type and mutant kinases (313 kinase panel) (Homo sapiens, UniProt P14616) (P14616 27-1297, change not shown): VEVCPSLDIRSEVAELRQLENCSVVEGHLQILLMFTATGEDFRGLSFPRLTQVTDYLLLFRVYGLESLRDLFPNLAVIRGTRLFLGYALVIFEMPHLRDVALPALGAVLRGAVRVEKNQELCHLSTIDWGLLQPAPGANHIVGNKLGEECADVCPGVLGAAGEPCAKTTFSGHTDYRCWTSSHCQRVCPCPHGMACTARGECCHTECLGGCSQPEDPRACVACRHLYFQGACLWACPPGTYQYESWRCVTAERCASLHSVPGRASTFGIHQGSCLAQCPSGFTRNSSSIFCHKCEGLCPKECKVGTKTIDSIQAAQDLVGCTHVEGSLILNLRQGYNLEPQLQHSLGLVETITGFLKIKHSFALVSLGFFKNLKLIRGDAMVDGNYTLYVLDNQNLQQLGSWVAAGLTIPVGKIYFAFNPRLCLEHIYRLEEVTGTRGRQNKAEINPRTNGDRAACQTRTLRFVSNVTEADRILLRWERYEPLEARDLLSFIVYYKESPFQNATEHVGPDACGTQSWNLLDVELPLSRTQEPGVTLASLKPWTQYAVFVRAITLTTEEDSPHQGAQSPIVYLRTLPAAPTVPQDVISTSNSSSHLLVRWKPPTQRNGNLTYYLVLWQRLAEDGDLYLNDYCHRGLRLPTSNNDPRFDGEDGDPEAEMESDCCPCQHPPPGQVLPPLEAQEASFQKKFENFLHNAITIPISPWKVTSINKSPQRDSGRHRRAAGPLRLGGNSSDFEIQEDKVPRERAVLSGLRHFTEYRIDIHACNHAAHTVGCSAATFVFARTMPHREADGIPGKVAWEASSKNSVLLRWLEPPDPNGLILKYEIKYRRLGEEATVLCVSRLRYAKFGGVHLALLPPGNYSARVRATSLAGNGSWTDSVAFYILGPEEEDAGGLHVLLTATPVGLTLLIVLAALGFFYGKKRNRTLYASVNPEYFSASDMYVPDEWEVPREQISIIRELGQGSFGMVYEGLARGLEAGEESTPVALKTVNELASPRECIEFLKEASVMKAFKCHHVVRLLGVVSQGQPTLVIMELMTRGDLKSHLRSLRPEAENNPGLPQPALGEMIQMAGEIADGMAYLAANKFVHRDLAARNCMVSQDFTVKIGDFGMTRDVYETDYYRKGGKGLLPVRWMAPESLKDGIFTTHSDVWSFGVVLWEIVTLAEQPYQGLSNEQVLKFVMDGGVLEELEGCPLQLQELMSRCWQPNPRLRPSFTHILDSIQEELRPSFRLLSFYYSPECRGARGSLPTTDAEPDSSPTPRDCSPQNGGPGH
Chain of panel of more than 300 wild-type and mutant kinases (313 kinase panel) (Homo sapiens, UniProt O14578) (O14578 whole entry, change not shown): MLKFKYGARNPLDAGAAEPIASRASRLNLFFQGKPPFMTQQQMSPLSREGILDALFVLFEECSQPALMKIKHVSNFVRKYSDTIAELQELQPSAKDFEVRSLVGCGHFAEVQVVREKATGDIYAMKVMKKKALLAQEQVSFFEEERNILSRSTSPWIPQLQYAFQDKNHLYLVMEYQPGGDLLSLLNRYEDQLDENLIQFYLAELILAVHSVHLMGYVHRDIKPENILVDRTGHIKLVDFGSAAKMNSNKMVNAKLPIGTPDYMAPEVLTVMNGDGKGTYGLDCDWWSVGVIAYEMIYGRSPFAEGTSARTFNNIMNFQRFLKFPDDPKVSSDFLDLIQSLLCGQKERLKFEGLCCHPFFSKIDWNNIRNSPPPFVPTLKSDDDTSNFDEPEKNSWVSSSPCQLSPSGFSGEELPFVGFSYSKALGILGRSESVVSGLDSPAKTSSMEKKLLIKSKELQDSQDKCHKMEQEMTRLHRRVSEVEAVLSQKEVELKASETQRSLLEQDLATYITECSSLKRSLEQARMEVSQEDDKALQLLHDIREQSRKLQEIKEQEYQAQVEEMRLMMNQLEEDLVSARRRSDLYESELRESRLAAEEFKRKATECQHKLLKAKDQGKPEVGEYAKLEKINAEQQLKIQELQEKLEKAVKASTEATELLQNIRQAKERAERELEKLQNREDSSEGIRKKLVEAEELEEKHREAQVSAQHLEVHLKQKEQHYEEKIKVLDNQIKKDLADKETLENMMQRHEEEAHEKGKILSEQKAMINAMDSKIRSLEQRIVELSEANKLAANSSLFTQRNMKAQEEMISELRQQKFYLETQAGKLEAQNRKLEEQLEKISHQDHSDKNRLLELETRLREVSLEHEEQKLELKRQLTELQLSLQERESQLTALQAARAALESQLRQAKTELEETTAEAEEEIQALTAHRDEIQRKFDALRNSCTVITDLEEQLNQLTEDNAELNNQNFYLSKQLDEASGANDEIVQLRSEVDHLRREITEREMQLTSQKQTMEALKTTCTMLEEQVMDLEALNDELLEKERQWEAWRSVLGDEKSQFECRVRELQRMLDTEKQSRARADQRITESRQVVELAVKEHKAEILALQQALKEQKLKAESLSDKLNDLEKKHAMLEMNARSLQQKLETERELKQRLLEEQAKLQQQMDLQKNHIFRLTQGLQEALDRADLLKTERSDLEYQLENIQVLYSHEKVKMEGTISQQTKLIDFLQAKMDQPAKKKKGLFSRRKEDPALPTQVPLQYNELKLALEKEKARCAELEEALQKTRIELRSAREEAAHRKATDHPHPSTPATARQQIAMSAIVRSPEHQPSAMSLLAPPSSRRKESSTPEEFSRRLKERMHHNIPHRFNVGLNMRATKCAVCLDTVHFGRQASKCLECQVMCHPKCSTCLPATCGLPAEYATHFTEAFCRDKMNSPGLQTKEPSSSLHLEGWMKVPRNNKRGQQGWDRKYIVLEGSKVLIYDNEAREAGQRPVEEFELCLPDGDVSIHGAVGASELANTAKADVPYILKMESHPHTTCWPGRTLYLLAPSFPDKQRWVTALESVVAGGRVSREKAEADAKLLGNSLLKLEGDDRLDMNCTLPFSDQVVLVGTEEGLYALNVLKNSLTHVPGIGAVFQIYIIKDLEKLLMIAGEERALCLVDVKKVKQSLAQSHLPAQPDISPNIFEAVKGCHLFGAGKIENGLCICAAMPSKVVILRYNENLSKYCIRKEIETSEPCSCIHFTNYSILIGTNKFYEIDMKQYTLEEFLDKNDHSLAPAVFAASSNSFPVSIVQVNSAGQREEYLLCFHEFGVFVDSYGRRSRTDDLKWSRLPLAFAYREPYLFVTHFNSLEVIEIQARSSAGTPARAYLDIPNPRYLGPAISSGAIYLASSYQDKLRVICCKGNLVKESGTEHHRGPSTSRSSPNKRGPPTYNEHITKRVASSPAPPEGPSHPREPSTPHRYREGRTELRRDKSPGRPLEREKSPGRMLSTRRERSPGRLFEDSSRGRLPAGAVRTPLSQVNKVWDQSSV

Row | SMILES | %-inhibition of CRIK ([1]; kinase CRIK, compound at 1 μM) [%] | %-inhibition of IRR ([2]; kinase IRR, compound at 1 μM) [%] | %-inhibition of TTK ([3]; kinase TTK, compound at 1 μM) [%] | %-inhibition of EPHB1 ([4]; kinase EPHB1, compound at 1 μM) [%] | %-inhibition of PKCδ ([5]; kinase PKCδ, 1 μM) [%] | %-inhibition of MST1 ([6]; kinase MST1, 1 μM) [%] | %-inhibition of NEK7 ([7]; kinase NEK7, 1 μM) [%] | %-inhibition of EPHB1 ([4]; 1 µM) [%] | %-inhibition of MST1 ([6]; 1 µM) [%] | %-inhibition of NEK7 ([7]; 1 µM) [%] | %-inhibition of CRIK ([1]; 1 µM) [%] | %-inhibition of IRR ([2]; 1 µM) [%] | %-inhibition of TTK ([3]; 1 µM) [%] | %-inhibition of PKCδ ([5]; 1 µM) [%]
1 | CCCS(=O)(=O)Nc1ccc(F)c(C(=O)c2c[nH]c3ncc(-c4ccc(Cl)cc4)cc23)c1F [vemurafenib] | -6 | 21 | -14 | -1.63 | -5 | 51 | -3.56 | – | – | – | – | – | – | –
2 | O=S(=O)(c1cccc2cnccc12)N1CCCNCC1 [fasudil] | 7 | 0.15 | -11 | -7 | 19 | 10 | -1.52 | – | – | – | – | – | – | –
3 | CS(=O)(=O)CCNCc1ccc(-c2ccc3ncnc(Nc4ccc(OCc5cccc(F)c5)c(Cl)c4)c3c2)o1 [lapatinib] | 7 | -4 | 0.257 | – | -1.67 | – | – | -0.743 | -5.59 | -0.744 | – | – | – | –
4 | C#Cc1cccc(Nc2ncnc3cc(OCCOC)c(OCCOC)cc23)c1 [erlotinib] | – | – | – | – | – | – | – | 22 | -1.06 | 0.893 | 21 | -12 | 6.42 | 5
5 | Cc1cn(-c2cc(NC(=O)c3ccc(C)c(Nc4nccc(-c5cccnc5)n4)c3)cc(C(F)(F)F)c2)cn1 [nilotinib] | -16 | – | -8 | 72 | – | – | -3.77 | – | -21 | – | – | -0.717 | – | -14
6 | CC(=O)Nc1cccc(-n2c(=O)n(C3CC3)c(=O)c3c(Nc4ccc(I)cc4F)n(C)c(=O)c(C)c32)c1 [trametinib] | -4.25 | – | 59 | -8 | -4.75 | -3.74 | 1.63 | – | – | – | – | 1.35 | – | –
